Numbers after ± are expanded uncertainties.
Settings: 300 K; 101.33 kPa; Crystal; Coaxial cylinder method

thermal conductivity: 15 ± 3 W/m/K
Compound: [BH3-][NH3+] [ammonia borane]

From the NIST ThermoML archive (doi:10.1016/j.tca.2006.10.012)
